The values below come from US7932270B2 (Cytokinetics, Inc., priority 2006, dated 2011).

SMILES strings stand for the structures.

T1 sequence (P02607 2-151): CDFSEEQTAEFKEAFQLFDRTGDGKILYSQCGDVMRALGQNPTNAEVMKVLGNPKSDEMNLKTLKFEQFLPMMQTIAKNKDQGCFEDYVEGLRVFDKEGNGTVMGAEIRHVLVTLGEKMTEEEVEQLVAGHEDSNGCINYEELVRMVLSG
T1 sequence (P10587 84-789): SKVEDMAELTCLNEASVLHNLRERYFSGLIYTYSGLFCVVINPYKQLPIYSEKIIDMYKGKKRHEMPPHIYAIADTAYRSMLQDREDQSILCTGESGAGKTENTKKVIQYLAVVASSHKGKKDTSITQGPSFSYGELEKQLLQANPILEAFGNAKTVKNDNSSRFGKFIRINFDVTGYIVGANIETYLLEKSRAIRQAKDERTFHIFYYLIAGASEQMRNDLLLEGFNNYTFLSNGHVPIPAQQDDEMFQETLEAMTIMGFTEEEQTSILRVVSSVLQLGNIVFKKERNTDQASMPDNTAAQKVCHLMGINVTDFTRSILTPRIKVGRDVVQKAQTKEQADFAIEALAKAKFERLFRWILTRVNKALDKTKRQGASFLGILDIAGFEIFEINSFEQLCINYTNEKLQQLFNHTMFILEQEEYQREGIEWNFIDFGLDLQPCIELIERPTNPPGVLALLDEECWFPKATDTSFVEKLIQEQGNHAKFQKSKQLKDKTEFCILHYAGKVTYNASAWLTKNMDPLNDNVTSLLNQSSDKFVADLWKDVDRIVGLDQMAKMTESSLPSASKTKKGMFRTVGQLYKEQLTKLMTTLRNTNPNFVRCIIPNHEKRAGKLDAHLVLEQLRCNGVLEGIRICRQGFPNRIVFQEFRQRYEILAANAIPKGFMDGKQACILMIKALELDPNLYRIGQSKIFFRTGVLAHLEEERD

This assay concerns the target T1, chicken gizzard smooth muscle myosin subfragment-1 chemically crosslinked to cardiac or skeletal actin (Gallus gallus, UniProt P10587).
T1 construct: chicken gizzard smooth muscle myosin subfragment-1; from tissue; host or cells: chicken gizzard
The assay is described as follows: Smooth muscle myosin ATPase dose response assay (pyruvate kinase/horseradish peroxidase/pyruvate oxidase-coupled, amplex red fluorescence). It counts as biochemical. The following applies: read-out: IC50 Arithmetic Mean. A digest of the protocol:
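ATPase monitored by amplex red fluorescence (ex 480/em 615 nm) via pyruvate oxidase/HRP coupling, pH 7.00, ATP 0.15 mM. Enzyme: smooth muscle S1-actin crosslinked conjugate, amount set empirically by titration. Dose-response fitted with 4-parameter Hill equation for IC50.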
Take `C=CCNC(=O)c1ccc(-c2ccccc2)nc1NCCc1cccc(C)c1` [(2-{[2-(3-methylphenyl)ethyl]amino}-6-phenyl(3-pyridyl))-N-prop-2-enylcarboxamide]: the 50% inhibitory concentration (IC50) was determined as 3.74 µM.
Take `N#Cc1ccccc1-c1ccc(C(=O)NCCCCN)c(NCCc2cccc(F)c2)n1` [N-(4-aminobutyl)(6-(2-cyanophenyl)-2-{[2-(3-fluorophenyl)ethyl]amino}(3-pyridyl))carboxamide]: the IC50 stood at 0.416 µM.
For `C[C@H](N)C(=O)N1CCC[C@@H]1CNC(=O)c1cc(F)c(-c2cnn(C)c2)nc1NCCc1cccc(F)c1` [N-{[(2R)-1-((2S)-2-aminopropanoyl)pyrrolidin-2-yl]methyl}(5-fluoro-2-{[2-(3-fluorophenyl)ethyl]amino}-6-(1-methylpyrazol-4-yl)(3-pyridyl))carboxamide], the IC50 came out at 0.099 µM.
In the case of `O=C(NCc1cccnc1)c1cc(F)c(-c2cn[nH]c2)nc1NCCn1cccn1` [{5-fluoro-6-pyrazol-4-yl-2-[(2-pyrazolylethyl)amino](3-pyridyl)}-N-(3-pyridylmethyl)carboxamide], the IC50 is 0.211 µM.
As to `CC(C)(C)OC(=O)NCCN1CCC[C@@H]1CNC(=O)c1ccc(-c2ccccc2C#N)nc1NCCc1cccc(F)c1` [N-[((2R)-1-{2-[(tert-butoxy)carbonylamino]ethyl}pyrrolidin-2-yl)methyl](6-(2-cyanophenyl)-2-{[2-(3-fluorophenyl)ethyl]amino}(3-pyridyl))carboxamide], the IC50 turned out to be 3.69 µM.
`N#Cc1ccccc1-c1ccc(C(=O)NC[C@H]2CCN2C(=O)CO)c(NCCc2cccc(F)c2)n1` [N-{[(2R)-1-(2-hydroxyacetyl)azetidin-2-yl]methyl}(6-(2-cyanophenyl)-2-{[2-(3-fluorophenyl)ethyl]amino}(3-pyridyl))carboxamide]: the IC50 is 0.04 µM.
As to `Cc1ccc(-c2ccc(C(=O)NCc3cccnc3)c(NCCc3ccccn3)n2)cc1` [{6-(4-methylphenyl)-2-[(2-(2-pyridyl)ethyl)amino](3-pyridyl)}-N-(3-pyridylmethyl)carboxamide], the IC50 worked out at 0.677 µM.
The value for `COCc1cccc(-c2ccc(C(=O)NCc3cccnc3)c(NCCc3cccc(F)c3)n2)c1` [(2-{[2-(3-fluorophenyl)ethyl]amino}-6-[3-(methoxymethyl)phenyl](3-pyridyl))-N-(3-pyridylmethyl)carboxamide] was 5.72 µM; that for `CNC(=O)CCNC(=O)c1ccc(-c2ccccc2C#N)nc1NCCc1cccc(F)c1` [3-[(6-(2-cyanophenyl)-2-{[2-(3-fluorophenyl)ethyl]amino}(3-pyridyl))carbonylamino]-N-methylpropanamide] was 0.34 µM.
In the case of `COC(=O)[C@@H](C)NC(=O)c1ccc(-c2ccccc2C#N)nc1NCCc1cccc(F)c1` [methyl (2R)-2-[(6-(2-cyanophenyl)-2-{[2-(3-fluorophenyl)ethyl]amino}(3-pyridyl))carbonylamino]propanoate], the IC50 is 0.743 µM.
With `Cn1cc(-c2ccc(C(=O)NCc3ccnn3CCN)c(NCCc3cccc(F)c3)n2)cn1` [N-{[1-(2-aminoethyl)pyrazol-5-yl]methyl}(2-{[2-(3-fluorophenyl)ethyl]amino}-6-(1-methylpyrazol-4-yl)(3-pyridyl))carboxamide], the IC50 amounted to 0.313 µM.
As to `C[C@H](CNC(=O)c1ccc(-c2ccccc2C#N)nc1NCCc1cccc(F)c1)N(C)C(=O)CN`, the IC50 was found to be 0.152 µM.
The same measure for `N#Cc1ccccc1-c1ccc(C(=O)NCc2cccc(NCCN)n2)c(NCCc2cccc(F)c2)n1` [N-({6-[(2-aminoethyl)amino](2-pyridyl)}methyl)(6-(2-cyanophenyl)-2-{[2-(3-fluorophenyl)ethyl]amino}(3-pyridyl))carboxamide]: 0.007 µM.
For the compound `NCc1ccnc(CNC(=O)c2ccc(-c3ccccc3)nc2NCCc2cccc(F)c2)c1` [N-{[4-(aminomethyl)(2-pyridyl)]methyl}(2-{[2-(3-fluorophenyl)ethyl]amino}-6-phenyl(3-pyridyl))carboxamide], the IC50 turned out to be 1.21 µM.
`O=C(NCc1cccnc1)c1ccc(-c2ccccc2)nc1NCCCc1ccccc1` [{6-phenyl-2-[(3-phenylpropyl)amino](3-pyridyl)}-N-(3-pyridylmethyl)carboxamide]: the IC50 worked out at 5.69 µM.
With `N#Cc1ccccc1-c1ccc(C(=O)NCC2CCCCCN2C(=O)CCCN)c(NCCc2cccc(F)c2)n1` (stereo not shown) [N-{[1-(4-aminobutanoyl)azaperhydroepin-2-yl]methyl}(6-(2-cyanophenyl)-2-{[2-(3-fluorophenyl)ethyl]amino}(3-pyridyl))carboxamide], the IC50 amounted to 0.383 µM.
For the compound `CC[C@@H](CO)CNC(=O)c1cc(F)c(-c2cn[nH]c2)nc1NCCc1cccc(F)c1` [N-((2R)-2-ethyl-3-hydroxypropyl)(5-fluoro-2-{[2-(3-fluorophenyl)ethyl]amino}-6-pyrazol-4-yl(3-pyridyl))carboxamide], the IC50 was found to be 0.052 µM.
For `C[C@H](CNC(=O)c1ccc(-c2ccccc2C#N)nc1NCCc1cccc(F)c1)NC(=O)CNC(=O)OC(C)(C)C`, the IC50 turned out to be 2.31 µM.
The value for `CC(=O)N1CCN(C(C)=O)[C@@H](CNC(=O)c2ccc(-c3ccccc3C#N)nc2NCCc2cccc(F)c2)C1` [N-[((2S)-1,4-diacetylpiperazin-2-yl)methyl](6-(2-cyanophenyl)-2-{[2-(3-fluorophenyl)ethyl]amino}(3-pyridyl))carboxamide] was 17.2 µM; that for `Cc1cc(C(=O)NCc2cccnc2CNC(=O)OC(C)(C)C)c(NCCc2cccc(F)c2)nc1-c1cnn(C)c1` [N-[(2-{[(tert-butoxy)carbonylamino]methyl}(3-pyridyl))methyl](2-{[2-(3-fluorophenyl)ethyl]amino}-5-methyl-6-(1-methylpyrazol-4-yl)(3-pyridyl))carboxamide] was 1.12 µM; that for `NCc1ncccc1CNC(=O)c1ccc(-c2cc[nH]n2)nc1NCCc1cccc(F)c1` [N-{[2-(aminomethyl)(3-pyridyl)]methyl}(2-{[2-(3-fluorophenyl)ethyl]amino}-6-pyrazol-3-yl(3-pyridyl))carboxamide] was 0.043 µM.
Turning to `N#Cc1ccccc1-c1ccc(C(=O)NC[C@H]2CN(C(=O)CN)CCN2)c(NCCc2cccc(F)c2)n1` [N-{[(2S)-4-(2-aminoacetyl)piperazin-2-yl]methyl}(6-(2-cyanophenyl)-2-{[2-(3-fluorophenyl)ethyl]amino}(3-pyridyl))carboxamide], the IC50 turned out to be 8.88 µM.
The same measure for `CC(C)(C)OC(=O)NCCCN1CCC[C@@H]1CNC(=O)c1ccc(-c2ccccc2C#N)nc1NCCc1cccc(F)c1` [N-[((2R)-1-{3-[(tert-butoxy)carbonylamino]propyl}pyrrolidin-2-yl)methyl](6-(2-cyanophenyl)-2-{[2-(3-fluorophenyl)ethyl]amino}(3-pyridyl))carboxamide]: 1.34 µM.
With `N#Cc1ccccc1-c1ccc(C(=O)NCc2cccc(CCN)n2)c(NCCc2cccc(F)c2)n1` [N-{[6-(2-aminoethyl)(2-pyridyl)]methyl}(6-(2-cyanophenyl)-2-{[2-(3-fluorophenyl)ethyl]amino}(3-pyridyl))carboxamide], the IC50 was found to be 0.011 µM.
On to `N#Cc1ccccc1-c1ccc(C(=O)NCCNS(=O)(=O)CCN)c(NCCc2cccc(F)c2)n1` [N-(2-{[(2-aminoethyl)sulfonyl]amino}ethyl)(6-(2-cyanophenyl)-2-{[2-(3-fluorophenyl)ethyl]amino}(3-pyridyl))carboxamide], for which the IC50 was 1.55 µM.
